| melting point [°C] | Structure (SMILES) |
| --- | --- |
| 288 | NS(=O)(=O)c1ccc(-c2noc(-c3cnc4ccc(-c5ccc(C(F)(F)F)cc5)cn34)n2)cc1 |
| 77 to 78 | Brc1cn2cncc2s1 |
| 164 to 165 | O=C1C(c2ccccc2)=C(c2ccccc2)C(=O)N1CCc1ccccc1 |
| 62 | CCCCCCCCC(Cc1cccnc1)(C(=O)NO)S(=O)(=O)c1ccc(OC)cc1 (stereo not given) |
| 66.4 to 69.7 | N#CCc1cccc2c1C=CN(C(=O)c1ccccc1)C2C#N (stereo not given) |
| 93 to 95 | CC(=O)OCc1c(Br)cccc1N1Cc2cc(N(C)C)ccc2C1=O |
| 214 | O=C(NN=Cc1cccc2ccccc12)c1cc2ccccc2cc1O |
| 147 to 148 | CCn1ncnc1COc1nc2c(cnn2-c2ccccc2)c2ccccc12 |
| 148 to 149 | [N-]=[N+]=NC1(O)CC(n2cc(Br)c(=O)[nH]c2=O)OC1CO (stereo not given) |
| 114 to 115 | O=C(Nc1ccc(-n2nc(C(F)(F)F)cc2C(F)(F)F)cc1-n1nc(C(F)(F)F)cc1C(F)(F)F)c1ccc(F)cc1F |
| 79 | CCNC(=NNc1c(Cl)cc(C(F)(F)F)cc1Cl)C1(C)CC1(Cl)Cl (stereo not given) |
| 193 to 194 | CN1C(=O)Nc2ccc(-c3cccc(Cl)c3)cc2C1(C)C1CC1 (stereo not given) |
| 73.5 to 81 | CC(C)(C)OC(=O)NNCCC12CC3CC(CC(C3)C1)C2 |
| 148 to 150 | CN(C)C(=O)C(C)(C)n1cc(-c2ccccc2)c(-c2ccccc2)n1 |
| 44 to 46 | CCOC(=O)CC(C)(C)CC(=O)C1CC2=C(CC(C)(C)CC2)N(C2CCCCC2)C1 (stereo not given) |
| 80 to 81 | Oc1c2c(nn1-c1ccccn1)CCCc1ccccc1-2 |
| 219 to 231 | O=C(O)c1cnc2c3ccccc3ccn2c1=O |
| 183 to 185 | Cc1cc(Cc2ccc(O)cc2)n(C)c1C(=O)c1ccc(Cl)cc1 |
| 120 to 121 | CCCc1c(OCc2cccc(OCc3ccc4ccccc4n3)c2)ccc2c(=O)cc(C(=O)OCC)oc12 |
| 190 to 192 | Cc1nc(-n2cnn(Cc3ccc(F)cc3)c2=O)sc1C#N |
| 94 to 95 | CCOC(=O)CC1=NCC(c2cccc(OCc3ccc4ccccc4n3)c2)O1 (stereo not given) |
| 114 to 116 | CN=C(NC#N)NCCSCc1ncccc1Br |
| 108 to 110 | O=C(O)CCC(=O)c1ccc(F)c(Br)c1 |

| melting point [°C] | Structure (SMILES) |
| --- | --- |
| 113 to 115 | CC(Oc1ccc(Oc2ccc(F)cc2)cc1)(C(=O)O)c1ccccc1 (stereo not given) |
| 75 to 77 | CN(C)Cc1c(Cl)nc(-c2ccccc2)c2ccccc12 |
| 186 to 187 | C[C@@H]1CN(C(=O)[C@@](C)(O)C(F)(F)F)[C@@H](C)CN1S(=O)(=O)c1ccc(C#N)cc1 |
| 90 to 91 | COc1cccc2c(OCCN3CCOCC3)c(-c3ccccc3)c(=O)oc12 |
| 187 to 188 | [O-][N+](C1C2CC(c3ccccc32)C1Cl)=[N+]([O-])C1C2CC(c3ccccc32)C1Cl (stereo not given) |
| 67 to 68 | CCCCCCCCCCCN=C1SC(=CC(=O)O)C(=O)N1CCCCCCCCCCC |
| 203 to 205 | Cc1cc2oc(=O)c(NC(=O)Nc3cccc(C(F)(F)F)c3)c(-c3ccccc3C)c2cc1Cl |
| > 250 | Cc1c(-c2csc(-c3ccncc3)n2)c(=O)[nH]c2ccccc12 |
| 155 to 160 | O=C(O)Cc1ccc(NC(=O)C(CCc2ccccc2)NS(=O)(=O)c2ccc(Br)cc2)cc1 (racemic) |
| 129 | O=Cc1ccccc1OCCOc1ccccc1C=O |
| 261 to 263 | O=C(Nc1cn2cc(-n3ccnc3)ccc2n1)c1ccc(-c2ccoc2)cc1 |
| 207 to 209 | Cc1ccc(NC(=O)c2ccc3oc(-c4c(C)cc(OCC(=O)N(C)C)cc4C)nc3c2)cc1C |
| 218 to 220 | Cn1cc(-c2cccc(-n3ncc4cc(C(C)(C)C)cc(F)c4c3=O)c2CO)cc(Nc2ccc(C(C)(C)C(=O)O)cn2)c1=O |
| 118 to 119 | COc1cc(Nc2nccc(-c3ccc(N4CCNC(CO)C4)nc3)n2)cc(OC)c1OC (stereo not given) |
| 123 to 125 | COC(=O)COc1ccc(C(C)=O)c2ccccc12 |
| 219 to 221 | CCCn1nc(-c2cnc3[nH]cc(C(=O)N[C@H](C)C(=O)N4CC(C#N)C4)c3n2)c2ccc(Cl)cc21 |
| > 255 | CCc1nc2c(N)nc3cccnc3c2n1CC1(O)CCN(C(=O)N2CCOCC2)CC1 |
| 117 to 121 | C=CCn1c(CC)nc2nc3cc(Cl)ccc3nc21 |
| 116 to 122 | CN1CCC(O)(CNC=O)CC1 |
| 97.9 to 98.5 | CCc1ccc(Nc2c(C(=O)NN)ccc(F)c2F)c(F)c1 |
| 157 to 158 | O=C1Nc2cc(Cl)ccc2OC1CCCBr (stereo not given) |
| 36 to 37 | COc1cccc(-c2cc(-c3ccoc3)on2)c1 |
| 172 | Oc1cc(/C=C/c2ccccc2)cc(O)c1O |

| melting point [°C] | Structure (SMILES) |
| --- | --- |
| 125 to 127 | O=c1[nH]nc(-c2ccc(Cl)cc2)o1 |
| 63 | CCCCN(CCCC)CCCOc1ccc(C(=O)c2c(C)oc3ccc([N+](=O)[O-])cc23)cc1 |
| 111 to 113 | CC(C)Oc1ccc(CCCOc2nn(Cc3ccccc3)cc2CC(=O)O)c(Oc2ncc(Cl)cc2Cl)c1 |
| 79 to 82 | COc1ccc(/C=C/c2ccccc2)c(OC)c1OC |
| 80.5 to 89.9 | CNN1c2c(cc(Oc3ccc(F)cc3F)c(=O)n2NC)C=NC1S(=O)Cc1ccccc1 (stereo not given) |
| 75 to 76 | CCc1onc(-c2ccccc2)c1C(=O)NCCCCl |
| 116 to 118 | O=[N+]([O-])c1ccc(Cl)c2c(Cl)ccnc12 |
| 214 | O=C(NC(=O)c1ccccc1Cl)Nc1ccc(C(F)(F)F)cc1 |
| 119 to 121 | O=C1NC(=O)C(Cc2ccc(C(=O)CCc3ccccc3)cc2)S1 (stereo not given) |
| 201 to 203 | O=P(O)(O)C(O)(Cc1nn(-c2ccc(F)cc2)cc1-c1ccc(Cl)cc1)P(=O)(O)O |
| 170 to 171 | C#Cc1cnc(C)c(O)c1CO |
| 242 to 244 | O=C(O)c1cnc2cc(I)ccc2n1 |
| 263 to 264 | COc1cc2c3c([nH]c2c(Cl)c1Cl)C(=O)NCC3 |
| 160 to 162 | CCOC(=O)c1cn(C2CC2)c2c(F)c(NCCCO)c(F)cc2c1=O |
| 89 to 91 | O=C(CBr)c1cccn1S(=O)(=O)c1ccccc1 |
| 171 to 174 | O=C(NCc1ccc(Cl)cc1)c1cn2c(CCCO)cc3cc(CN4CCOCC4)cc(c1=O)c32 |
| 229 to 230 | CCCCc1nc2c(N)nc3cc(-c4ccsc4)ccc3c2n1CC(C)C |
| 129 to 131 | CCOc1nc2ccccc2nc1N(C)C(=O)N1CCN(c2cc(Cl)cc(Cl)c2)CC1 |
| 156 to 157 | CC(C)(C)c1cc(CCc2ccccc2NC(=O)NC2CCN(Cc3ccc(C(F)(F)F)cc3C(F)(F)F)CC2)cc(C(C)(C)C)c1O |
| 68 to 69 | CCc1ccc(-c2coc3c(C)c(C)c(N)c(C)c23)cc1 |
| 247 to 248 | OCc1c[nH]c(=S)n1[C@H]1CCc2cc(Cl)c(Cl)cc2C1 |
| 93 | CCOC(=O)CC(CCCNC(=O)c1csc(NC(=O)NCc2ccccc2)n1)c1ccccc1 (racemic) |
| 240 | O=P1(O)Oc2c(Cl)cc(Cc3ccccc3)cc2-c2ccccc21 |

| Structure (SMILES) | melting point [°C] |
| --- | --- |
| N#Cc1nn(-c2c(Cl)cc(C(F)(F)F)cc2Cl)c(N)c1S(=O)(=O)CC(F)(F)F | 157 |

Source: a melting point compilation (Tetko et al.; mined from patent text by program, amines drawn as free bases though some values may be those of a salt)
